{"source": "patent US20250170101A1", "about": "“MONOACYLGLYCEROL LIPASE INHIBITORS AND USE THEREOF FOR THE TREATMENT AND MANAGEMENT OF PAIN AND RELATED CONDITIONS” (Psy Therapeutics, Inc., priority 2021, published 2025)", "key": {"[1]": {"assay": "Pharmacokinetic study of compounds in mice, Example 25", "format": "in vivo, male C57BL/6 mice", "conditions": "Brain, Oral, 5 mg/kg", "experimental": "Healthy male C57BL/6 mice (8-12 weeks old) weighing between 17 to 35 g were procured from Global, India. Temperature and humidity were maintained at 22±3° C. and 30-70%, respectively and illumination was controlled to give a sequence of 12 hr light and 12 hr dark cycle. Temperature and humidity were recorded by auto-controlled data logger system. All the animals were provided laboratory rodent diet. Reverse osmosis water treated with ultraviolet light was provided ad libitum.\nProtocol A: Twenty-four male mice were divided into two groups as; Group 1: 30 mg/kg/IP; Plasma and brain; Number of animals=12; Animal #1-12. Group 2: 30 mg/kg/PO; Plasma and brain; Number of animals=12; Animal #13-24. […] All samples were processed for analysis by protein precipitation using acetonitrile and analyzed with fit-for-purpose LC/MS/MS method (LLOQ—2.02 ng/mL for plasma and 6.06 ng/g for brain). Pharmacokinetic parameters were calculated using the non-compartmental analysis tool of Phoenix WinNonlin®.\nProtocol B: Thirty six mice were included into the study and divided in to three groups as Group 1 (n=12), Group 2 (n=12) and Group 3 (n=12) with n=2 mice per time-point design. […] Plasma and brain samples were quantified by fit-for-purpose LC-MS/MS method (LLOQ: 1.01 ng/mL for plasma and 2.02 ng/mL for brain). […]"}, "[2]": {"biological_target": "T1, MAGL enzyme (Homo sapiens, UniProt Q99685)", "T1 sequence (Q99685 1-303)": "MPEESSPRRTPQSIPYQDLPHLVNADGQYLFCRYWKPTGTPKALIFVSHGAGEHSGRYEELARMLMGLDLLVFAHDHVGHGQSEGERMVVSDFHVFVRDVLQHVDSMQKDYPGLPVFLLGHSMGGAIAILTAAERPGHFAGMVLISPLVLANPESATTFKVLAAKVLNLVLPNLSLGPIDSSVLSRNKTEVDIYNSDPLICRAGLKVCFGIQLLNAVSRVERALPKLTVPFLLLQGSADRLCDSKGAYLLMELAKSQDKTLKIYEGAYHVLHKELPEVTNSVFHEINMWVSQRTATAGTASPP", "assay": "MAGL reversible inhibition assay (washout), Example 22", "format": "biochemical", "design": "% MAGL activity returning after washout: concentration or dose not given beside the values", "experimental": "The reversible mechanism of MAGL inhibition of a test compound of Formula (I) can be determined. Flag-tagged MAGL enzyme will be immobilized on anti-Flag beads. Immobilized enzyme will be incubated+/−inhibitor at a dose that produces complete inhibition. Colorimetric substrate (4-NPA) will be added and the reaction monitored on a plate reader for 30 minutes to verify complete inhibition. Immobilized enzyme will then be washed thoroughly to remove the inhibitor, and fresh substrate will be added. The reaction will be monitored for an additional 30 minutes; returning enzymatic activity will indicate reversibility of inhibition. […]\nFor some test compounds, % activity returning after washout may be less than 100%/if complete compound unbinding takes longer than 30 minutes."}, "[3]": {"biological_target": "T2, human MAGL (Homo sapiens, UniProt Q99685)", "T2 construct": "recombinant MAGL enzyme (aa 2-303 RBC, internal preparation)", "T2 sequence (Q99685 2-303)": "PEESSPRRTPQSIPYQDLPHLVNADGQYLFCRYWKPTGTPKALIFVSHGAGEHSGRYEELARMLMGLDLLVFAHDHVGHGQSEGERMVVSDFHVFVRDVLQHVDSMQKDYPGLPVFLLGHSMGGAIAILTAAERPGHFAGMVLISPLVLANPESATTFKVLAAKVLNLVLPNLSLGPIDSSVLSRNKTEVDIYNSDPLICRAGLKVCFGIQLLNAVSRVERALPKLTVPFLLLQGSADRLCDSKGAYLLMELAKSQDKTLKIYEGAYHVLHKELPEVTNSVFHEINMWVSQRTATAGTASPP", "assay": "MAGL inhibition potency (IC50) with 4NPA substrate, Example 20, methods of Table C", "format": "biochemical", "conditions": "Method 12: Enzyme Conc 15, Reaction Biology (15 nM); read-out: MAGL Potency (Detection Method)"}}, "data": [{"smiles": "Cc1cnn(C2CC3(C2)CN(C(=O)c2cc(O)ccc2F)C3)c1-c1cc(F)ccc1F", "note": "(single isomer, unassigned) [Compound 476, {6-[5-(2,5-difluorophenyl)-4-methyl-1-pyrazolyl]-2-aza-2-spiro[3.3]heptyl}(2-fluoro-5-hydroxyphenyl)methanone]", "values": [{"measurement": "AUClast", "setting": "[1]", "result": 223.64, "unit": "ng·h/mL"}]}, {"smiles": "Cc1cn(C2CC3(C2)CN(C(=O)c2cc(O)ccc2F)C3)nc1-c1cc(F)ccc1Cl", "note": "(single isomer, unassigned) [Compound 520, {6-[3-(2-chloro-5-fluorophenyl)-4-methyl-1-pyrazolyl]-2-aza-2-spiro[3.3]heptyl}(2-fluoro-5-hydroxyphenyl)methanone]", "values": [{"measurement": "degree to which MAGL enzymatic activity returned following washout of test compounds", "setting": "[2]; pre-washout compound concentration 1 μM", "result": 100}, {"measurement": "% MAGL activity returning after washout", "setting": "[2]; relative to control (no inhibitor before washout), immediately following 30 minute washout", "result": ">50", "unit": "%"}, {"measurement": "IC50", "setting": "[3]", "result": "< 50", "unit": "nM"}]}]}
